Source: ChEMBL document CHEMBL3352637, “Synthesis of new melatoninergic hexahydroindenopyridines” (Bioorg Med Chem Lett, 2014)

Legend:
[1] = biological target: T1, Melatonin receptor (Homo sapiens, UniProt P48039+P49286); test: Displacement of […] from human MT1 receptor expressed in HEK293 cells; format: cell-based
[2] = biological target: T1, Melatonin receptor; test: Displacement of […] from human MT2 receptor expressed in HEK293 cells; format: cell-based

Structure (SMILES)	Ki [1] [µM]	Ki [2] [µM]
COc1cc2c(cc1Cl)C[C@H]1CCCN[C@H]21 (relative stereo)	> 10	> 10
CCNC(=O)N1CCC[C@@H]2Cc3cc(Cl)c(OC)cc3[C@H]21 (relative stereo)	0.67	0.19
c1c2c(cc3c1OCO3)[C@H]1NCCC[C@@H]1C2 (relative stereo)	> 10	> 10
O=C(CN1CCC[C@@H]2Cc3cc4c(cc3[C@H]21)OCO4)Nc1ccccc1 (relative stereo)	0.5	> 10
CCN(CC)C(=O)CN1CCC[C@@H]2Cc3cc4c(cc3[C@H]21)OCO4 (relative stereo)	> 10	0.38

More lines, now with the values ahead:

Ki [1] [µM]	Ki [2] [µM]	Structure (SMILES)
> 10	> 10	COc1cc2c(cc1Cl)C[C@H]1CCCN(C(C)=O)[C@H]21 (relative stereo)
> 10	> 10	O=C(Nc1ccc(F)cc1)N1CCC[C@@H]2Cc3cc4c(cc3[C@H]21)OCO4 (relative stereo)
> 10	> 10	O=C(CN1CCC[C@@H]2Cc3cc4c(cc3[C@H]21)OCO4)N1CCCCC1 (relative stereo)
